Common to all, as to format: in vivo, human
Experiment [1] relates to panel of 10 persons. Nature of the experiment: Taste masking effect on MDLA (200 ppm) in carbonated juice drink. The settings on record: scale 1-no taste to 7-unbearable taste. How it is done: The evaluation of the taste was based on the article titled “Reduction of saltiness and bitterness after a chlorhexidine rinse”, Chem. Senses 26: 105-116 (2001). […] The organoleptic studies were performed with a panel of 10 persons who were trained in experiments involving the tasting of bitter constituents. The panel was asked to compare samples containing a cationic surfactant alone or combined with one or more masking agent. The members of the panel were asked to indicate which sample was less bitter, thereby taking into account the scale of values defined as given above.

The subject of experiment [2] is panel of 10 persons. Description: Organoleptic taste evaluation of LAE (200 ppm) with masking agents in carbonated juice drink. The following applies: scale 1-no taste to 7-unbearable taste. How it is done:
The combination of the test compound neohespiridin (NHDC) with LAE was investigated in a carbonated oral juice drink (a base sugar syrup with concentrated organic juice, manufactured by […] control solution of 200 ppm LAE in the juice drink was prepared. The test samples were prepared by direct dissolution of the test compound in the control solution. The test samples were compared with the control solution and with an untreated (blank) juice drink. The evaluation of the taste was based on the article titled “Reduction of saltiness and bitterness after a chlorhexidine rinse”, Chem. Senses 26: 105-116 (2001). […] The organoleptic studies were performed with a panel of 10 persons who were trained in experiments involving the tasting of bitter constituents. The panel was asked to compare samples containing a cationic surfactant alone or combined with one or more masking agent. The members of the panel were asked to indicate which sample was less bitter, thereby taking into account the scale of values defined as given above. The combination of LAE with only one masking agent, NAF®, was compared with a combination of several masking agents (one of these being NAF®) in carbonated orange juice drinks. The manner of determination of the organoleptic results is the same as described in example 1. The results are reported in the following table 3 where a solution A is compared with a solution B. Composition of solutions (all containing 200 ppm LAE): […] Different types of NAF® are investigated ([…] lemon, NAF® C Orange, etc., all produced by Ogawa). The carbonated orange juice drink is produced by Hausmann S.A.

The subject of experiment [3] is panel of 10 persons. Nature of the experiment: Determination of the taste in toothpaste containing LAE (7,500 ppm). The settings on record: scale 1-no taste to 7-unbearable taste. How it is done: The evaluation of the taste was based on the article titled “Reduction of saltiness and bitterness after a chlorhexidine rinse”, Chem. Senses 26: 105-116 (2001). […] The organoleptic studies were performed with a panel of 10 persons who were trained in experiments involving the tasting of bitter constituents. The panel was asked to compare samples containing a cationic surfactant alone or combined with one or more masking agent. The members of the panel were asked to indicate which sample was less bitter, thereby taking into account the scale of values defined as given above. Determination of the taste in toothpaste. The toothpaste used is a standard opaque […] prepared by the addition of (in g): [table] […] A control sample contained LAE in a concentration of 7,500 ppm. The same concentration of LAE was present in all further investigated samples. […] The sweetening agents sorbitol and lactilol were investigated in the same test as described in example 11. The samples were prepared in similar manner, the concentration of LAE was 7,500 ppm.

Experiment [4] has as its system consumer. Nature of the experiment: Organoleptic experiments (beverages, toothpaste, food matrix, cosmetic preparation). The settings on record: for neutralisation of the bitter taste of the cationic surfactant: high doses, combined with a cationic surfactant of formula (1), numerous experiments.
For experiment [5], the system named is panel of 10 persons. Description: Determination of the taste masking in toothpaste containing MDLA (7,500 ppm). The settings on record: product 3,330 ppm + 7,500 ppm MDLA in toothpaste; scale 1-no taste to 7-unbearable taste. How it is done: The evaluation of the taste was based on the article titled “Reduction of saltiness and bitterness after a chlorhexidine rinse”, Chem. Senses 26: 105-116 (2001). […] The organoleptic studies were performed with a panel of 10 persons who were trained in experiments involving the tasting of bitter constituents. The panel was asked to compare samples containing a cationic surfactant alone or combined with one or more masking agent. The members of the panel were asked to indicate which sample was less bitter, thereby taking into account the scale of values defined as given above. Determination of the taste masking in toothpaste. The toothpaste used was produced in the manner described in example 11.

The mark [6] stands for this setting: test compound 1,000 ppm + 200 ppm MDLA in juice drink.
[7] abbreviates: test compound 500 ppm + 200 ppm LAE in juice drink.
Setting [8] is: test compound 1,000 ppm + 200 ppm LAE in juice drink.
Where [9] appears, read: sweetening agent 200,000 ppm + 7,500 ppm LAE in toothpaste.
The mark [10] stands for this setting: test compound 10,000 ppm + 200 ppm MDLA in juice drink.
Where [11] appears, read: test compound 10,000 ppm + 200 ppm LAE in juice drink.
Where [12] appears, read: test compound 60,000 ppm + 200 ppm LAE in juice drink.

For `CC1(C)[C@@H](O[C@H]2O[C@H](C(=O)O)[C@@H](O)[C@H](O)[C@H]2O[C@@H]2O[C@H](C(=O)O)[C@@H](O)[C@H](O)[C@H]2O)CC[C@]2(C)[C@H]3C(=O)C=C4[C@@H]5C[C@@](C)(C(=O)O)CC[C@]5(C)CC[C@@]4(C)[C@]3(C)CC[C@@H]12` [Glycyrrhizinate, monoammonium glycyrrhizinate], the Organoleptic results worked out at 2.4 in experiment [1] (setting [6]), 2.3 in experiment [2] (test compound 250 ppm + 200 ppm LAE in juice drink), 2 in experiment [2] (setting [7]) and 2 in experiment [2] (setting [8]).

Compound `CCCCCCCCCCCC(=O)N[C@@H](CCCN=C(N)N)C(=O)OCC.Cl` [LAE, ethyl ester of the lauramide of the arginine monohydrochloride] registered an Organoleptic result in experiment [3] (Control: 7,500 ppm LAE in toothpaste, no masking agent) of 5.4.

`OC[C@@H](O)[C@@H](O[C@@H]1O[C@H](CO)[C@H](O)[C@H](O)[C@H]1O)[C@H](O)[C@@H](O)CO` [Lactitol, lactitol]: the “neutralisation of the bitter taste of the cationic surfactant” value (“neutralisation” for short) in experiment [4] is “does not neutralise the bitter taste”. The Organoleptic result in experiment [3] (setting [9]) amounted to 5.1.

Regarding `COc1ccc(CCC(=O)c2c(O)cc(O[C@@H]3O[C@H](CO)[C@@H](O)[C@H](O)[C@H]3O[C@@H]3O[C@@H](C)[C@H](O)[C@@H](O)[C@H]3O)cc2O)cc1O` [NHDC], the Organoleptic results in experiment [2] (test compound 1 ppm + 200 ppm LAE in juice drink) was 2.5.

`CCCCCCCCCCCCOS(=O)(=O)[O-].[Na+]` [SDS, sodium dodecyl sulfate]: the “taste of the toothpaste” value in experiment [4] (cationic surfactant of formula (1) combined only with SDS, cosmetic preparation) was “smooth taste”. Further, the Organoleptic results in experiment [1] (test compound 3,320 ppm + 200 ppm MDLA in juice drink) stood at 2.6; in experiment [2] (test compound 1,330 ppm + 200 ppm LAE in juice drink), 2.9; in experiment [2] (test compound 1,960 ppm + 200 ppm LAE in juice drink), 2.3; in experiment [2] (test compound 3,320 ppm + 200 ppm LAE in juice drink), 1.6. For the same compound, the Organoleptic result in experiment [3] (product 1,960 ppm + 7,500 ppm LAE in toothpaste) is recorded as 2.9; in experiment [3] (product 3,330 ppm + 7,500 ppm LAE in toothpaste), 2.8; in experiment [5] it was 2.9.

As to `OC[C@@H](O)[C@@H](O)[C@H](O)[C@@H](O)CO` [Sorbitol, sorbitol], in experiment [4], the “neutralisation” value was “does not neutralise the bitter taste”. The Organoleptic result in experiment [3] (setting [9]) is recorded as 4.9.

On to `OC[C@H]1O[C@H](O[C@]2(CCl)O[C@H](CCl)[C@@H](O)[C@@H]2O)[C@H](O)[C@@H](O)[C@H]1Cl` [Sucralose, sucralose], for which the Organoleptic results in experiment [2] (test compound 5 ppm + 200 ppm LAE in juice drink) is 2.7.

Consider `OC[C@@H](O)[C@@H](O)[C@H](O)[C@H](O)CO` [mannitol], for which, in experiment [4], the “neutralisation” value is listed as “does not neutralise the bitter taste”.

For the compound `CC(=O)[O-].[Na+]` [sodium acetate], the Organoleptic results in experiment [1] (setting [10]) stood at 2.8; in experiment [2] (setting [8]) it was 2.8; in experiment [2] (setting [11]), 2.3.

Consider `N[C@@H](CCC(=O)[O-])C(=O)[O-].[Na+].[Na+]` [sodium glutamate], for which the figures for the Organoleptic results in experiment [1] (setting [6]), in experiment [2] (setting [8]) and in experiment [2] (setting [12]) were 5.4, 5.0 and 4.8, respectively.

For the compound `OC[C@H]1O[C@@](CO)(O[C@H]2O[C@H](CO)[C@@H](O)[C@H](O)[C@H]2O)[C@@H](O)[C@@H]1O` [sugar], the “neutralisation” value in experiment [4] is “does not neutralise the bitter taste”. For the same compound, the figures for the Organoleptic results in experiment [1] (setting [10]), in experiment [2] (setting [11]) and in experiment [2] (setting [12]) were 5.1, 5.0 and 4.8, respectively.

Turning to `OC[C@H]1O[C@@H]2O[C@H]3[C@H](O)[C@@H](O)[C@@H](O[C@H]4[C@H](O)[C@@H](O)[C@@H](O[C@H]5[C@H](O)[C@@H](O)[C@@H](O[C@H]6[C@H](O)[C@@H](O)[C@@H](O[C@H]7[C@H](O)[C@@H](O)[C@@H](O[C@H]8[C@H](O)[C@@H](O)[C@@H](O[C@H]1[C@H](O)[C@H]2O)O[C@@H]8CO)O[C@@H]7CO)O[C@@H]6CO)O[C@@H]5CO)O[C@@H]4CO)O[C@@H]3CO` [β-cyclodextrin], the Organoleptic result in experiment [3] (product 2,000 ppm + 7,500 ppm LAE in toothpaste) amounted to 2.7. In experiment [2] (setting [8]), the Organoleptic results was found to be 2.1.

As for lysozyme, the Organoleptic results in experiment [1] (test compound 2,500 ppm + 200 ppm MDLA in juice drink) is on record as 2.7; in experiment [2] (setting [7]) it was 2.5; in experiment [2] (test compound 2,500 ppm + 200 ppm LAE in juice drink), 2.

Values taken from patent US20100028325A1, “New Combination Of Cationic Preservatives With Taste-Masking Components” (LABORATORIOS MIRET, S.A., priority 2007, published 2010).
